Source: ChEMBL document CHEMBL1141712, “Kinase array design, back to front: biaryl amides” (Bioorg Med Chem Lett, 2008)

How the values were obtained:
[1] = target: Mitogen-activated protein kinase 14 (Homo sapiens, UniProt Q16539); test: Displacement of fluorescent ATP competitive ligand from p38alpha
[2] = target: Serine/threonine-protein kinase PLK1 (Homo sapiens, UniProt P53350); test: Inhibition of PLK1
[3] = target: Tyrosine-protein kinase Lck (Homo sapiens, UniProt P06239)
[4] = target: Receptor tyrosine-protein kinase erbB-4 (Homo sapiens, UniProt Q15303); test: Inhibition of ErbB4
[5] = target: Epidermal growth factor receptor (Homo sapiens, UniProt P00533)
[6] = target: Cyclin-dependent kinase 2 (Homo sapiens, UniProt P24941); test: Inhibition of CDK2
[7] = target: Vascular endothelial growth factor receptor 2 (Homo sapiens, UniProt P35968); test: Inhibition of VEGFR2
[8] = target: Mitogen-activated protein kinase 10 (Homo sapiens, UniProt P53779); test: Inhibition of JNK3
[9] = target: Macrophage colony-stimulating factor 1 receptor (Homo sapiens, UniProt P07333); test: Inhibition of cFMS
[10] = target: T1, Serine/threonine-protein kinase Sgk1 (Homo sapiens, UniProt O00141); test: Inhibition of SGK1
T1 sequence (O00141 whole entry): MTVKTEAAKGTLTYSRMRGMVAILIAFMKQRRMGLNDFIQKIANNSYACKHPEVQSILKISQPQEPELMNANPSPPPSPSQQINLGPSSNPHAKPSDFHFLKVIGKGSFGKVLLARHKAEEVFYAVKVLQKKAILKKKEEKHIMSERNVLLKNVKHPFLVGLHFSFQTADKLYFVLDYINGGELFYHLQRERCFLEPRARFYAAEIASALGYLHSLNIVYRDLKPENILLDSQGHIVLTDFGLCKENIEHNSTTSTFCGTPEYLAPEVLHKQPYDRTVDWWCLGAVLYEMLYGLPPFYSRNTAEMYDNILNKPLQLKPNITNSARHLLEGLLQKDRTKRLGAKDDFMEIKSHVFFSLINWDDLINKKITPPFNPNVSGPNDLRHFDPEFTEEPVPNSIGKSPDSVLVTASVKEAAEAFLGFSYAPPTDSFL

Blood = test: Inhibition of LPS-stimulated TNFalpha release in human whole blood; assay type: functional, tissue-based
[11] = target: Dual specificity mitogen-activated protein kinase kinase 1 (Homo sapiens, UniProt Q02750); test: Inhibition of MEK1 by cRaf/mek/Erk cascade assay
PBMC = test: Inhibition of LPS-stimulated TNFalpha release in human PBMCs; assay type: functional, cell-based

Vascular endothelial growth factor receptor 2, sequence (P35968 whole entry): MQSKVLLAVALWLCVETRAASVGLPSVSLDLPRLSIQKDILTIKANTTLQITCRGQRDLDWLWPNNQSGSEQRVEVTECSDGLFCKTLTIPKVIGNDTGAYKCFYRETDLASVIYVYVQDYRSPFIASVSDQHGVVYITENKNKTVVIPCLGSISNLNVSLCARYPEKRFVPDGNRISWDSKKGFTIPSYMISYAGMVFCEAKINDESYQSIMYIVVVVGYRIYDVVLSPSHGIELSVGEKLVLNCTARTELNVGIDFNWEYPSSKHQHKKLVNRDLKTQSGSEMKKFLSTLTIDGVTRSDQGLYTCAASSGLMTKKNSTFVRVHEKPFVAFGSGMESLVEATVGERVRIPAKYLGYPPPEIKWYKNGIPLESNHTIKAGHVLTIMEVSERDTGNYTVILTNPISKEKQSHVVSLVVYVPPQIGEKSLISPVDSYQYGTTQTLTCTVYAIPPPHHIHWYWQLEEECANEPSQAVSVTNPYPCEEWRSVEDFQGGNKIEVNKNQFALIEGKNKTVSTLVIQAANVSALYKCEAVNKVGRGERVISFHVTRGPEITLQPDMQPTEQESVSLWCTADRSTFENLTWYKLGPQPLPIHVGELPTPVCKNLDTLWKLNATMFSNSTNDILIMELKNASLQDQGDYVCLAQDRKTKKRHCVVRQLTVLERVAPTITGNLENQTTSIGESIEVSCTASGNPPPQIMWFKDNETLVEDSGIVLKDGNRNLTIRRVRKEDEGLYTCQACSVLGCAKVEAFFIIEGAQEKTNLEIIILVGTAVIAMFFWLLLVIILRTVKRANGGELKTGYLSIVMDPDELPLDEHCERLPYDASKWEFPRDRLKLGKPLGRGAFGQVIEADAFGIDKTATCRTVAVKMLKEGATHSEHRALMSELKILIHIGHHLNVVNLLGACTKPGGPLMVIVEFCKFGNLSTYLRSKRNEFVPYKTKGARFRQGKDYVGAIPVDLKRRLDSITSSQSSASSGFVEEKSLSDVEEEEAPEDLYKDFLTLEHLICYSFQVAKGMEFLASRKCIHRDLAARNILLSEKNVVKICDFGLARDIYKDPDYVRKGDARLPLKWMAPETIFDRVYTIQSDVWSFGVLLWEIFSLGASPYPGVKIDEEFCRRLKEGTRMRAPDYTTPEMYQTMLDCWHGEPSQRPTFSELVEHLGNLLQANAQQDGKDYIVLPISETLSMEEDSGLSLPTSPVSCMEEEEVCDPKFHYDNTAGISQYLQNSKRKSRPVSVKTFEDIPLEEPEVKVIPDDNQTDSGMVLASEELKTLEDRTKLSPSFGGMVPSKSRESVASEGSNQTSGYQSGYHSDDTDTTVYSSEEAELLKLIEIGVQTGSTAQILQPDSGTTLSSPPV
Macrophage colony-stimulating factor 1 receptor, sequence (P07333 whole entry): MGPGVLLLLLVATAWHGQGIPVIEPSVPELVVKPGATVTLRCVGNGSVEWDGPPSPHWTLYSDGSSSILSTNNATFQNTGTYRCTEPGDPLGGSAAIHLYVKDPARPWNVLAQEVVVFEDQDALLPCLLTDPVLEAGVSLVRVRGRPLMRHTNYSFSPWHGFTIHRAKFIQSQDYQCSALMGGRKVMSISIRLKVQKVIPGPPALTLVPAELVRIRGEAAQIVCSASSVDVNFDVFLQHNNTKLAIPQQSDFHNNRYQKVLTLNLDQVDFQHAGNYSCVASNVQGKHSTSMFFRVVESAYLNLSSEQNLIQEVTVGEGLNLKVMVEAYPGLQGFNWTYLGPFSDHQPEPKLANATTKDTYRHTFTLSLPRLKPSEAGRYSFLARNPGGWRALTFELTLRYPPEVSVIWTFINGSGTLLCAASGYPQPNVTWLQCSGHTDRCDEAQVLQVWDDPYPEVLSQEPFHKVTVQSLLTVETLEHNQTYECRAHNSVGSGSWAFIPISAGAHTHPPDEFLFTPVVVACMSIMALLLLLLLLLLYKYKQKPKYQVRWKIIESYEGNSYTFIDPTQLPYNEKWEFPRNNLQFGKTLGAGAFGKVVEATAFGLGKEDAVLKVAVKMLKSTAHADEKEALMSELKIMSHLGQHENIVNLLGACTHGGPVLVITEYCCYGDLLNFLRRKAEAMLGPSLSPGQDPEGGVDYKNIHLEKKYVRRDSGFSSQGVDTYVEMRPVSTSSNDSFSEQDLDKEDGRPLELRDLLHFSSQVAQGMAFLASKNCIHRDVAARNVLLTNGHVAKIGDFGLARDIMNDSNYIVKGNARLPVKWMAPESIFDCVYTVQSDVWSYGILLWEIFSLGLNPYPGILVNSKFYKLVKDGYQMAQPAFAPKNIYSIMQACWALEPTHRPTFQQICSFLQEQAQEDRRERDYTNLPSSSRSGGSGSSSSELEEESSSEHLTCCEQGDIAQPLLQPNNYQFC
Tyrosine-protein kinase Lck, sequence (P06239 whole entry): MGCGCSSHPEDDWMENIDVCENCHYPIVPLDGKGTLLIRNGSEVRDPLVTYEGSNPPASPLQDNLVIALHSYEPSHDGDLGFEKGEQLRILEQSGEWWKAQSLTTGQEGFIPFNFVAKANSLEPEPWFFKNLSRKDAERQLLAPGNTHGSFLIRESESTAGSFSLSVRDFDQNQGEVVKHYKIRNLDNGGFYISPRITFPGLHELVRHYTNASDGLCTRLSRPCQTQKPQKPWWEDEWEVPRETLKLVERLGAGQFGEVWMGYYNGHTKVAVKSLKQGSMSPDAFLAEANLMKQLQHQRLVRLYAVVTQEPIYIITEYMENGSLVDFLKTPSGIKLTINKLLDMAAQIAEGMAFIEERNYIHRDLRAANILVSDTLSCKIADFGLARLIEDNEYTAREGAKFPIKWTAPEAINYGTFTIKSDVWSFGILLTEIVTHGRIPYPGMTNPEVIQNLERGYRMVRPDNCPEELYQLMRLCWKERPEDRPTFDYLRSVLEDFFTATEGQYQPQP
Receptor tyrosine-protein kinase erbB-4, sequence (Q15303 whole entry): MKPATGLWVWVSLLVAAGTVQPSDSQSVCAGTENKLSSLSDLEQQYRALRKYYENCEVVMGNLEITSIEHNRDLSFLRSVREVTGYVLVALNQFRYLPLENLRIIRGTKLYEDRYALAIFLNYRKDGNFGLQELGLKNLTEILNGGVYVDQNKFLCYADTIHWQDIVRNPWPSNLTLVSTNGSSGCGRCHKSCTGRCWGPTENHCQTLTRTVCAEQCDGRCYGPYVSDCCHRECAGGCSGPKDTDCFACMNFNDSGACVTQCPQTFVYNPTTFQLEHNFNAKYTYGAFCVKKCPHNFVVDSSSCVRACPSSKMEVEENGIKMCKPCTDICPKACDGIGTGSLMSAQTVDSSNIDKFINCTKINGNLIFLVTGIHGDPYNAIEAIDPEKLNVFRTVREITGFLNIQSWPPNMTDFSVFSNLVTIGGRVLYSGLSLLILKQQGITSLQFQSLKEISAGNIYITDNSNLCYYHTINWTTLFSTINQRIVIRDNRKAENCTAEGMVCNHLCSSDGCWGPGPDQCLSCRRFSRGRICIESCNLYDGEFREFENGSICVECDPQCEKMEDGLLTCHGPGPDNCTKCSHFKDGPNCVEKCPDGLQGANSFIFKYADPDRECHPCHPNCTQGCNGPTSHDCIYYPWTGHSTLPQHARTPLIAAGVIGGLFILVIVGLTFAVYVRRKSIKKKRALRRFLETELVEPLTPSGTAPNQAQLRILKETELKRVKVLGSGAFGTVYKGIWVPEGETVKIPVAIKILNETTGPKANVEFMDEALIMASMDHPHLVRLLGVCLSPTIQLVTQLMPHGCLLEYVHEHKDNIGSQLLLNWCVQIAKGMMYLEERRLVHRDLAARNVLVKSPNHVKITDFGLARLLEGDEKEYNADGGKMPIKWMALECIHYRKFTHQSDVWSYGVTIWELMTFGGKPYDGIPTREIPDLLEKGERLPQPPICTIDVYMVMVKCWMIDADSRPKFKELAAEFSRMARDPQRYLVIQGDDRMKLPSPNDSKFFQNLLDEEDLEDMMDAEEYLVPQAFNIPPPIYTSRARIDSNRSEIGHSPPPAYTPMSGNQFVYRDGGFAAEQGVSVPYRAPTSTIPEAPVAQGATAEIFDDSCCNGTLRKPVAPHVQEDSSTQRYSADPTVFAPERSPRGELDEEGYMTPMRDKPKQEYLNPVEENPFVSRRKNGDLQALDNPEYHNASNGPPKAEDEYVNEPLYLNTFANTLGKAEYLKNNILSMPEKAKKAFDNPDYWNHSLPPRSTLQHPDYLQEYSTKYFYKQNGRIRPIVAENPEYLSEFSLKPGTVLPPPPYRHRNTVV
Serine/threonine-protein kinase PLK1, sequence (P53350 whole entry): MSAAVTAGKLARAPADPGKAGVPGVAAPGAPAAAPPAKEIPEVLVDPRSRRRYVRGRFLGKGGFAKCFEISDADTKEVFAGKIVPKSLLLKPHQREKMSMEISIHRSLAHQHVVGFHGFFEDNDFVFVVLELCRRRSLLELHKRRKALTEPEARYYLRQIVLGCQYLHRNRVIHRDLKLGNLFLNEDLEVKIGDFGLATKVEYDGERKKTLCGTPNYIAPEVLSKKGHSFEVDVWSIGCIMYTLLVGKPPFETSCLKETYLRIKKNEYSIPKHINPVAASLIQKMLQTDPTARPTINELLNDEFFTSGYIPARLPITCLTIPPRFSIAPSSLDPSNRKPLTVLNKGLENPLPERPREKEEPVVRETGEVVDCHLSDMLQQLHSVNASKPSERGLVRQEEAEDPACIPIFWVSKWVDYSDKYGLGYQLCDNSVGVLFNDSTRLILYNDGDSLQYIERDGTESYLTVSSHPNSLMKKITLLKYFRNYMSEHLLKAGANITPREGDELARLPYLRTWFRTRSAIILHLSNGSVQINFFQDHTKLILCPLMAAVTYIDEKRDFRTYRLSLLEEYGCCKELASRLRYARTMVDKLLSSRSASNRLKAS

Cc1ccc(C(=O)NC2CC2)cc1-c1ccc2onc(C)c2c1
Ki [1]: 1100 nM

Cc1ccc(C(=O)Nc2cccc(N3CCOCC3)c2)cc1-c1ccc2[nH]c(=O)ccc2c1
Ki [1]: 290 nM

Cc1ccc(NC(=O)c2ccc(CN3CCN(C)CC3)cc2)cc1-c1ccc2c(N)noc2c1
IC50 [2]: > 25000 nM
IC50 [3]: 1000 nM
Ki [1]: > 850 nM
IC50 [4]: > 25000 nM
IC50 [5]: > 25000 nM
IC50 [6]: > 20000 nM
IC50 [7]: > 20000 nM
IC50 [8]: > 16000 nM
IC50 [9]: 90 nM
IC50 [10]: > 33000 nM

CCCCn1c(=O)[nH]c2cc(-c3cc(C(=O)NC4CC4)ccc3C)ccc2c1=O
Ki [1]: 18 nM

CCCCn1c(=O)[nH]c2cc(-c3cc(NC(=O)c4ccnc(N5CCCC5)c4)ccc3C)ccc2c1=O
Ki [1]: 11 nM

Cc1ccc(C(=O)NC2CC2)cc1-c1ccc(-c2csc(N)n2)cc1
Ki [1]: 130 nM

Cc1ccc(NC(=O)c2ccc(CN3CCN(C)CC3)cc2)cc1-c1ccc2ccncc2c1
IC50 [2]: > 25000 nM
IC50 [3]: 70 nM
Ki [1]: 830 nM
IC50 [4]: 300 nM
IC50 [5]: 700 nM
IC50 [6]: > 20000 nM
IC50 [7]: 800 nM
IC50 [8]: > 16000 nM
IC50 [9]: 4 nM
IC50 [10]: > 33000 nM

Cc1nnc(-c2ccc(-c3cc(NC(=O)c4ccnc(N5CCCC5)c4)ccc3C)c(C)c2)o1
IC50 [2]: > 25000 nM
IC50 [3]: 10000 nM
Ki [1]: 1.7 nM
IC50 [6]: > 20000 nM
IC50 (Blood): 700 nM
IC50 [7]: > 20000 nM
IC50 [8]: > 16000 nM
IC50 [9]: > 20000 nM
IC50 [11]: 200 nM
IC50 (PBMC): 100 nM
IC50 [10]: > 33000 nM

Cc1ccc(NC(=O)c2ccc(CN3CCN(C)CC3)cc2)cc1-c1ccc2[nH]c(=O)ccc2c1
Ki [1]: > 2500 nM

Cc1nc(-c2ccc(-c3cc(C(=O)Nc4cccc(N5CCOCC5)c4)ccc3C)cc2)no1
Ki [1]: 17 nM

Cc1ccc(C(=O)NC2CC2)cc1-c1ccc2c(N)noc2c1
Ki [1]: 110 nM

Cc1ccc(C(=O)NC2CC2)cc1-c1ccc2c(=O)[nH]c(-c3cccs3)nc2c1
Ki [1]: 2.9 nM

Cc1nnc(-c2ccc(-c3cc(C(=O)Nc4cccc(N5CCOCC5)c4)ccc3C)c(C)c2)o1
IC50 [2]: > 25000 nM
Ki [1]: 2.8 nM
IC50 [6]: > 20000 nM
IC50 [7]: 6000 nM
IC50 [8]: > 16000 nM
IC50 [9]: 700 nM
IC50 [11]: 400 nM
IC50 [10]: > 33000 nM

CCCCn1c(=O)[nH]c2cc(-c3cc(NC(=O)c4ccc(CN5CCN(C)CC5)cc4)ccc3C)ccc2c1=O
Ki [1]: 2000 nM

Cc1nc(-c2ccc(-c3cc(NC(=O)c4ccc(CN5CCN(C)CC5)cc4)ccc3C)cc2)no1
Ki [1]: > 850 nM

Cc1ccc(C(=O)Nc2cccc(N3CCOCC3)c2)cc1-c1ccc2c(N)noc2c1
Ki [1]: 19 nM

Cc1ccc(NC(=O)c2ccnc(N3CCCC3)c2)cc1-c1ccc2c(C3CCNCC3)noc2c1
IC50 [2]: > 25000 nM
IC50 [3]: 6000 nM
Ki [1]: 0.8 nM
IC50 [6]: > 20000 nM
IC50 (Blood): 5000 nM
IC50 [7]: > 20000 nM
IC50 [8]: > 16000 nM
IC50 [9]: 7000 nM
IC50 [11]: 30 nM
IC50 (PBMC): 60 nM
IC50 [10]: > 33000 nM

Cc1ccc(NC(=O)c2ccc(CN3CCN(C)CC3)cc2)cc1-c1ccc2cccnc2c1
Ki [1]: > 2500 nM

Cc1ccc(C(=O)Nc2cccc(N3CCOCC3)c2)cc1-c1ccc2[nH]ncc2c1
Ki [1]: 110 nM

Cc1nc(-c2ccc(-c3cc(NC(=O)c4ccnc(N5CCCC5)c4)ccc3C)cc2)no1
Ki [1]: 1.1 nM

Cc1ccc(NC(=O)c2ccnc(N3CCCC3)c2)cc1-c1ccc2cc[nH]c(=O)c2c1
Ki [1]: 2.4 nM

Cc1ccc(C(=O)Nc2cccc(N3CCOCC3)c2)cc1-c1ccc2c(C3CCNCC3)noc2c1
IC50 [2]: > 25000 nM
IC50 [6]: > 20000 nM
IC50 [7]: > 20000 nM
IC50 [8]: > 16000 nM
IC50 [9]: > 20000 nM
IC50 [11]: 40 nM
IC50 [10]: > 33000 nM

Cc1nnc(-c2ccc(-c3cc(NC(=O)c4ccc(CN5CCN(C)CC5)cc4)ccc3C)c(C)c2)o1
IC50 [2]: > 25000 nM
IC50 [3]: 3000 nM
Ki [1]: 1400 nM
IC50 [4]: > 25000 nM
IC50 [5]: > 25000 nM
IC50 [6]: > 20000 nM
IC50 [7]: > 20000 nM
IC50 [8]: > 16000 nM
IC50 [9]: 100 nM
IC50 [10]: > 33000 nM

Cc1nc(-c2ccc(-c3cc(C(=O)NC4CC4)ccc3C)cc2)no1
Ki [1]: 98 nM

Cc1ccc(NC(=O)c2ccc(CN3CCN(C)CC3)cc2)cc1-c1ccc2cc[nH]c(=O)c2c1
Ki [1]: > 2500 nM

Cc1ccc(C(=O)NC2CC2)cc1-c1ccc2cc[nH]c(=O)c2c1
Ki [1]: 420 nM

Cc1ccc(C(=O)NC2CC2)cc1-c1ccc2cccnc2c1
Ki [1]: 490 nM

Cc1ccc(C(=O)NC2CC2)cc1-c1ccc2c(=O)n(CC3CC3)nnc2c1
IC50 [2]: > 25000 nM
IC50 [3]: > 16000 nM
Ki [1]: 6 nM
IC50 [4]: > 25000 nM
IC50 [5]: > 25000 nM
IC50 [6]: > 20000 nM
IC50 (Blood): 500 nM
IC50 [7]: > 20000 nM
IC50 [8]: > 16000 nM
IC50 [9]: > 20000 nM
IC50 (PBMC): 400 nM
IC50 [10]: 32000 nM

Cc1ccc(C(=O)Nc2cccc(N3CCOCC3)c2)cc1-c1ccc(-c2csc(N)n2)cc1
Ki [1]: 20 nM

Cc1ccc(C(=O)Nc2cccc(N3CCOCC3)c2)cc1-c1ccc2onc(C)c2c1
Ki [1]: 380 nM

Cc1ccc(C(=O)Nc2cccc(N3CCOCC3)c2)cc1-c1ccc2ccncc2c1
Ki [1]: 4.5 nM

Cc1ccc(C(=O)Nc2cccc(N3CCOCC3)c2)cc1-c1ccc2nc(N)[nH]c(=O)c2c1
Ki [1]: 4.7 nM

Cc1ccc(NC(=O)c2ccc(CN3CCN(C)CC3)cc2)cc1-c1ccc(-c2csc(N)n2)cc1
IC50 [2]: > 25000 nM
IC50 [3]: 2000 nM
Ki [1]: > 850 nM
IC50 [4]: > 25000 nM
IC50 [5]: > 25000 nM
IC50 [6]: > 20000 nM
IC50 [7]: > 20000 nM
IC50 [8]: > 16000 nM
IC50 [9]: 90 nM
IC50 [10]: > 33000 nM

Cc1ccc(NC(=O)c2ccnc(N3CCCC3)c2)cc1-c1ccc2c(N)noc2c1
Ki [1]: 12 nM

Cc1ccc(NC(=O)c2ccnc(N3CCCC3)c2)cc1-c1ccc2[nH]c(=O)ccc2c1
Ki [1]: 49 nM

Cc1ccc(NC(=O)c2ccnc(N3CCCC3)c2)cc1-c1ccc(-c2csc(N)n2)cc1
Ki [1]: 6.7 nM

Cc1ccc(NC(=O)c2ccnc(N3CCCC3)c2)cc1-c1ccc2onc(C)c2c1
Ki [1]: 160 nM

Cc1ccc(C(=O)NC2CC2)cc1-c1ccc2[nH]ncc2c1 [GW820759X]
Ki [1]: 87 nM

Cc1ccc(C(=O)Nc2cccc(N3CCOCC3)c2)cc1-c1ccc2cc[nH]c(=O)c2c1
Ki [1]: 18 nM

CC(=O)Nc1cc(-c2ccc(-c3cc(NC(=O)c4ccnc(N5CCCC5)c4)ccc3C)cc2)[nH]n1
Ki [1]: 14 nM

Cc1ccc(NC(=O)c2ccnc(N3CCCC3)c2)cc1-c1ccc2nc(N)[nH]c(=O)c2c1
Ki [1]: 6.8 nM

Cc1ccc(C(=O)NC2CC2)cc1-c1ccc2ccncc2c1
IC50 [2]: > 25000 nM
IC50 [3]: 3000 nM
Ki [1]: 11 nM
IC50 [4]: > 25000 nM
IC50 [5]: > 25000 nM
IC50 [6]: > 20000 nM
IC50 (Blood): 100 nM
IC50 [7]: 500 nM
IC50 [8]: > 16000 nM
IC50 [9]: 600 nM
IC50 (PBMC): 100 nM
IC50 [10]: > 33000 nM

CCCCn1c(=O)[nH]c2cc(-c3cc(C(=O)Nc4cccc(N5CCOCC5)c4)ccc3C)ccc2c1=O
Ki [1]: 19 nM

Cc1ccc(C(=O)NC2CC2)cc1-c1ccc2nc(N)[nH]c(=O)c2c1
Ki [1]: 49 nM

Cc1ccc(C(=O)NC2CC2)cc1-c1ccc2c(=O)cc(-c3cccs3)oc2c1
Ki [1]: 6.7 nM
